{"source": "paper PMC12123458", "about": "“Unraveling Small Molecule-Mediated Sirtuin 3 Activation at a Distinct Binding Site for Cardioprotective Therapies” (ACS Central Science, 2025)", "target": "T1, SIRT3 (Rattus norvegicus, UniProt A0A8I5XWT5)", "T1 construct": "endogenous in cells; host or cells: H9c2", "T1 sequence (A0A8I5XWT5 1-347)": "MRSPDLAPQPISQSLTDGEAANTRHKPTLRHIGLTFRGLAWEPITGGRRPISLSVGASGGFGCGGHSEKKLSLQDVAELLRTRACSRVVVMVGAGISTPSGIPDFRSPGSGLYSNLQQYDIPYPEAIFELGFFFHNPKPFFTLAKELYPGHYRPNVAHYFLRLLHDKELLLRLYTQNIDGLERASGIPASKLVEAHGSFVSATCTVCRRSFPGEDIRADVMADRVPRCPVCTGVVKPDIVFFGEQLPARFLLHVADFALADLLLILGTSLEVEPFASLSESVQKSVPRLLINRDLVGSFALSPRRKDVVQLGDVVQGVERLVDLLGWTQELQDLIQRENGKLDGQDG", "experiment": "CETSA of SIRT3 in H9c2 cells", "format": "cell-based", "conditions": "10 μM, 6 h", "experimental": "The Cellular Thermal Shift Assay (CETSA) leverages the principle of thermal stabilization of proteins upon ligand binding. H9c2 cells were seeded on 100 mm culture dishes and allowed to adhere for 12 h. Following attachment, cells were treated with SKLB-11A (10 μM) for 6 h, after which they were enzymatically detached using trypsin and harvested. The cell suspension was partitioned into seven equal aliquots, which were then exposed to a range of thermal conditions (37, 41, 45, 49, 53, 57, and 61 °C) for 3 min each. Post-thermal treatment, rapid freezing in liquid nitrogen was performed thrice to ensure cell lysis. The lysates were then subjected to centrifugation at 12,000 rpm for 20 min, and the levels of SIRT3 were analyzed via Western blotting."}
{"compound": "COC(=O)c1c(N)n(Cc2ccc(F)cc2)c2nc3ccccc3nc12", "note": "[SKLB-11A, Methyl 2-amino-1-(4-fluorobenzyl)-1H-pyrrolo[2,3-b]quinoxaline-3-carboxylate]", "values": [{"measurement": "thermal stability of SIRT3 (CETSA)", "value": "effectively binds to SIRT3"}]}
